The values that follow are results of earlier work, collected in patent US6645986B2 (Pfizer Products, Inc., priority 2000, dated 2003).

Each structure is given as a SMILES string. Structures can show the parent of a compound that is named as a salt.

For the series the following is noted: compared with the anhydrous mesylate salt.

As for `C[C@@H]([C@@H](O)c1ccc(O)cc1)N1CCC(O)(c2ccccc2)CC1` [mesylate salt trihydrate, (1S,2S)-1-(4-hydroxyphenyl)-2-(4-hydroxy-4-phenylpiperidin-1-yl)-1-propanol mesylate trihydrate], the “stability of crystalline form” value is listed as “more stable crystalline form than the anhydrous mesylate salt”.
